# Source: US20110318412A1, “LOW DOSE DOXEPIN FORMULATIONS, INCLUDING BUCCAL, SUBLINGUAL AND FASTMELT FORMULATIONS, AND USES OF THE SAME TO TREAT INSOMNIA” (Somaxon Pharmaceuticals, Inc., priority 2006, published 2011)
# Where a name gives a salt, the structure may show the parent alone.
# Columns and labels:
# [1] = Doxepin plasma concentration after a 3 mg capsule in humans; format: in vivo, human
# Procedure: An estimate of the doxepin plasma concentrations associated with the initiation of sleep was obtained by combining data from multiple studies.
# In a separate study, in humans averaging about 70 kg, receiving a 3 mg capsule comprising doxepin hydrochloride, lactose monohydrate fast-flow, sodium lauryl sulfate and magnesium stearate, the average plasma concentration at 60 minutes was approximately 0.1 ng/mL.
# Without being limited, it is believed that the doxepin plasma concentration achieved approximately 1 hour after a 3 mg dose is sufficient for sleep initiation. The conclusion is that doxepin plasma concentrations of 0.1 ng/mL or greater were associated with initiation of sleep.
# [2] = Wu-Benet, 2005; cited from earlier work
# human subjects = assay: Sleep onset after a 3 mg doxepin hydrochloride capsule in human subjects; format: in vivo; conditions: human subjects averaging about 70 kg
# [3] = Measured bioavailability used for the simulation; conditions: in vivo
# [4] = Measured physicochemical parameters (logP, pKa) used for the simulation
"concentration at 60 min ([1]; human, plasma, oral, humans averaging about 70 kg, 3 mg capsule, separate study) [ng/mL]",bioavailability [3] [%],doxepin plasma concentration associated with initiation of sleep ([1]; estimate from combining data from multiple studies) [ng/mL],logP [4],pKa [4],Compound,Biopharmaceutic Classification System class [2],solubility (Biopharmaceutic Classification System) [2],sleep onset compared with a placebo dose (human subjects; 3 mg capsule),"time of sleep onset after dosing (human subjects; 3 mg capsule (doxepin hydrochloride, lactose monohydrate fast-flow, sodium lauryl sulfate, magnesium stearate))"
~0.1,–,–,–,–,CN(C)CCC=C1c2ccccc2COc2ccccc21 (mixture of isomers) [doxepin hydrochloride],Class One,high solubility,significantly earlier than with a placebo dose,about 60 minutes
–,29,≥ 0.1,4.13,8.96,CN(C)CCC=C1c2ccccc2COc2ccccc21 (mixture of isomers) [doxepin],–,–,–,–
